Results as given in article PMC9898036, “VIP152 is a selective CDK9 inhibitor with pre-clinical in vitro and in vivo efficacy in chronic lymphocytic leukemia” (Leukemia, 2022).

Key:
[1] = molecular target: Prostanoid EP4 (Homo sapiens, UniProt P35408); assay: Eurofins Diversity Panel; format: binding; conditions: hum, Conc. 10 μM
[2] = molecular target: SRPK2 (Homo sapiens, UniProt P78362); assay: KINOMEscan: SRPK2; format: binding; conditions: 100 nM, read-out: Percent Control
[3] = molecular target: HUNK (Homo sapiens, UniProt P57058); assay: KINOMEscan: HUNK; format: binding; conditions: 1000 nM, read-out: Percent Control
Chain of HUNK (P57058 whole entry): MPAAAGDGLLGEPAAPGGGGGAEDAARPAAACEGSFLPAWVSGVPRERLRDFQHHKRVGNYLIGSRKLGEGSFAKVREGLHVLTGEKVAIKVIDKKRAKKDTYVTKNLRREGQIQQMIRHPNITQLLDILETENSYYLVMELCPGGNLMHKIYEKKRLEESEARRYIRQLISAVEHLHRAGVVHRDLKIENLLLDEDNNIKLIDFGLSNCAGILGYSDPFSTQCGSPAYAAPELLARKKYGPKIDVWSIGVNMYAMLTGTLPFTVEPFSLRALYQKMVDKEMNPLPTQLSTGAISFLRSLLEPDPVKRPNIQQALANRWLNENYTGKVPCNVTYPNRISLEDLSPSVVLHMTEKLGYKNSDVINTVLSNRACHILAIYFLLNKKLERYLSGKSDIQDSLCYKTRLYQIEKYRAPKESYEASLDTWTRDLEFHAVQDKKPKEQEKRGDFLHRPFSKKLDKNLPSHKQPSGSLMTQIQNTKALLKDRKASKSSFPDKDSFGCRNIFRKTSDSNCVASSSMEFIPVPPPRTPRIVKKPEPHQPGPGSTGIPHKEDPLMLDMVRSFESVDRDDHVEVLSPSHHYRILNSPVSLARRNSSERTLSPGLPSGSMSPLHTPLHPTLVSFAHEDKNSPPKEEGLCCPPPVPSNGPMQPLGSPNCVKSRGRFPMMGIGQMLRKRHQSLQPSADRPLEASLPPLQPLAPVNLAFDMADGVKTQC

[4] = molecular target: Interleukin IL-1 (Mus musculus, UniProt P13504); assay: Eurofins Diversity Panel; format: binding; conditions: Conc. 10 μM
[5] = molecular target: KIT(A829P) (Homo sapiens, UniProt P10721, A829P); assay: KINOMEscan: KIT(A829P); format: binding; conditions: 1000 nM, read-out: Percent Control
[6] = molecular target: CDK7/Cyclin H (Homo sapiens, UniProt P50613); assay: NanoBRET target engagement assay (HEK293); format: cell-based; parameters: host or cells: HEK293
[7] = molecular target: EPHB1 (Homo sapiens, UniProt P54762); assay: KINOMEscan: EPHB1; format: binding; conditions: 1000 nM, read-out: Percent Control
Chain of EPHB1 (P54762 18-984): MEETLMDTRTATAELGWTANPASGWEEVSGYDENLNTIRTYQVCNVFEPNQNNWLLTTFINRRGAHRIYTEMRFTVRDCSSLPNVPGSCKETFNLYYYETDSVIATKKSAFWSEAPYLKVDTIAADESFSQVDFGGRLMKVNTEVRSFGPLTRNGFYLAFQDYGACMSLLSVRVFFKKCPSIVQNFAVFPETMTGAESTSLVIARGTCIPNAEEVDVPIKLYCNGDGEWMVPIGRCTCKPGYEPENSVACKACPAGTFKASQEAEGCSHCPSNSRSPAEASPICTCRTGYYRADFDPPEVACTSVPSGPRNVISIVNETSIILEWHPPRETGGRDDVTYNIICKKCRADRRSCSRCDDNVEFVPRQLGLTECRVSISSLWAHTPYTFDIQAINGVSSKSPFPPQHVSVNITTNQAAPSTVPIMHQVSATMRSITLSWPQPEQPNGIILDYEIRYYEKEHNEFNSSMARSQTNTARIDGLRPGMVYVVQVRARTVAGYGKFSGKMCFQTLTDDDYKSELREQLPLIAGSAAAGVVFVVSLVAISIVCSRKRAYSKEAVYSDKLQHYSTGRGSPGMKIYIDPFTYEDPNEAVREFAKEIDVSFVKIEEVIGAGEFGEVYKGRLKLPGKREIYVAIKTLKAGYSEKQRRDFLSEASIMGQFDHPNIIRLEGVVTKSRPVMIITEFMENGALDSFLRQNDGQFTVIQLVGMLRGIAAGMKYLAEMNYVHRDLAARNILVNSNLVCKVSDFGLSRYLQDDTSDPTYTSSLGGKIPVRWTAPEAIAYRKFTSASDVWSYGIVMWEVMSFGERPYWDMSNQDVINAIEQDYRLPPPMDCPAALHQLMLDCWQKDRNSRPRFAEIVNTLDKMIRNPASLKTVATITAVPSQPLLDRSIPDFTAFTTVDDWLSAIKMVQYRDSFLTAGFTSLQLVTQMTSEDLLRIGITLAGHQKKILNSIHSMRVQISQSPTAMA

[8] = molecular target: CSNK2A1 (Homo sapiens, UniProt P68400); assay: KINOMEscan: CSNK2A1; format: binding; conditions: 1000 nM, read-out: Percent Control
[9] = molecular target: LRRK2 (Homo sapiens, UniProt Q5S007); assay: KINOMEscan: LRRK2; format: binding; conditions: 1000 nM, read-out: Percent Control
[10] = molecular target: KIT(V559D,V654A) (Homo sapiens, UniProt P10721, V559D/V654A); assay: KINOMEscan: KIT(V559D,V654A); format: binding; conditions: 1000 nM, read-out: Percent Control
[11] = molecular target: MEK3 (Homo sapiens, UniProt P46734); assay: KINOMEscan: MEK3; format: binding; conditions: 1000 nM, read-out: Percent Control
[12] = molecular target: AURKC (Homo sapiens, UniProt Q9UQB9); assay: KINOMEscan: AURKC; format: binding; conditions: 1000 nM, read-out: Percent Control
Chain of AURKC (Q9UQB9 whole entry): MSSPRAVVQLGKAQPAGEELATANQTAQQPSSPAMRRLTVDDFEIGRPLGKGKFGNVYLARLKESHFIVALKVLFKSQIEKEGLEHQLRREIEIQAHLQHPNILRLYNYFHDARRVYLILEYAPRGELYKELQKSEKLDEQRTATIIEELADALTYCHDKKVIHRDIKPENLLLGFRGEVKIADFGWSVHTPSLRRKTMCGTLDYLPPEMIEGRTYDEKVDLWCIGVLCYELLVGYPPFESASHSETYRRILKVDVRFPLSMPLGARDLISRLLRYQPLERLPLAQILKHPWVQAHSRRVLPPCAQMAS

[13] = molecular target: HIPK2 (Homo sapiens, UniProt Q9H2X6); assay: KINOMEscan: HIPK2; format: binding; conditions: 1000 nM, read-out: Percent Control
[14] = molecular target: CAMK2A (Homo sapiens, UniProt Q9UQM7); assay: KINOMEscan: CAMK2A; format: binding; conditions: 1000 nM, read-out: Percent Control
[15] = molecular target: MRCKA (Homo sapiens, UniProt Q5VT25); assay: KINOMEscan: MRCKA; format: binding; conditions: 1000 nM, read-out: Percent Control
[16] = molecular target: Adrenergic β1 (Homo sapiens, UniProt P08588); assay: Eurofins Diversity Panel; format: binding; conditions: hum, Conc. 10 μM
Chain of Adrenergic β1 (P08588 whole entry): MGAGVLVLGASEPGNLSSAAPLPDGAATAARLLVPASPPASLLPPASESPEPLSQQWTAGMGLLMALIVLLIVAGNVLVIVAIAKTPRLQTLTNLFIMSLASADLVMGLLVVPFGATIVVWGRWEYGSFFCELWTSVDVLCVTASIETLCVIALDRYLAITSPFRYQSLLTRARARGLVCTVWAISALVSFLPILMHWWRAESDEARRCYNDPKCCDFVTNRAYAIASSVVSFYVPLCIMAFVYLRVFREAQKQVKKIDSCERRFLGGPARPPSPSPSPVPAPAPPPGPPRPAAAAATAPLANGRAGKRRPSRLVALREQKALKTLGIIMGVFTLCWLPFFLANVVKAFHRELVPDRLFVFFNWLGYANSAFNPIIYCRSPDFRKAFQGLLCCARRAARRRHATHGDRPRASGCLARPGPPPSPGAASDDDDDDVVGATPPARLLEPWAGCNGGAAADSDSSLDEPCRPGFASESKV

[17] = molecular target: FLT3(D835V) (Homo sapiens, UniProt P36888, D835V); assay: KINOMEscan: FLT3(D835V); format: binding; conditions: 1000 nM, read-out: Percent Control
[18] = molecular target: DCAMKL2 (Homo sapiens, UniProt Q8N568); assay: KINOMEscan: DCAMKL2; format: binding; conditions: 1000 nM, read-out: Percent Control
[19] = molecular target: CSNK1A1L (Homo sapiens, UniProt Q8N752); assay: KINOMEscan: CSNK1A1L; format: binding; conditions: 1000 nM, read-out: Percent Control
[20] = molecular target: EPHB6 (Homo sapiens, UniProt O15197); assay: KINOMEscan: EPHB6; format: binding; conditions: 1000 nM, read-out: Percent Control
[21] = molecular target: ROCK2 (Homo sapiens, UniProt O75116); assay: KINOMEscan: ROCK2; format: binding; conditions: 100 nM, read-out: Percent Control
[22] = molecular target: DCAMKL3 (Homo sapiens, UniProt Q9C098); assay: KINOMEscan: DCAMKL3; format: binding; conditions: 1000 nM, read-out: Percent Control
Chain of DCAMKL3 (Q9C098 whole entry): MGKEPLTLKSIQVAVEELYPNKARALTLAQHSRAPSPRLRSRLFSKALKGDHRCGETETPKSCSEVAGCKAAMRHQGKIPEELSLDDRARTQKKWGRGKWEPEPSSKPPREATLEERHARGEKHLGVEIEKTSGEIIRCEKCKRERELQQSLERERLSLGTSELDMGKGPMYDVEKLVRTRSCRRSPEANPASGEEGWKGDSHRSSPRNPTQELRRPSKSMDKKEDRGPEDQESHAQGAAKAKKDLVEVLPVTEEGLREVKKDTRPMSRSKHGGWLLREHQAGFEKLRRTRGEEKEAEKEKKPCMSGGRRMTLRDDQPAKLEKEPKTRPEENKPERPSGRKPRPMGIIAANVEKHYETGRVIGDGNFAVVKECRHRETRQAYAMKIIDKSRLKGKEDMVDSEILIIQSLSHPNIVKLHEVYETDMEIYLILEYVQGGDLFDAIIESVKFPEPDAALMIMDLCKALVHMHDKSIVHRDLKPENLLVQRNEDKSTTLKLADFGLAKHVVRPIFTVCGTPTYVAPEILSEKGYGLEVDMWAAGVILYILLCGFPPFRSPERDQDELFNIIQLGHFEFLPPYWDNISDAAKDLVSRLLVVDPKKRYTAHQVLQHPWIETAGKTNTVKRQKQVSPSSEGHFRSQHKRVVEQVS

[23] = molecular target: DDR1 (Homo sapiens, UniProt Q08345); assay: KINOMEscan: DDR1; format: binding; conditions: 1000 nM, read-out: Percent Control
[24] = molecular target: TIE1 (Homo sapiens, UniProt P35590); assay: KINOMEscan: TIE1; format: binding; conditions: 100 nM, read-out: Percent Control
Chain of TIE1 (P35590 22-1138): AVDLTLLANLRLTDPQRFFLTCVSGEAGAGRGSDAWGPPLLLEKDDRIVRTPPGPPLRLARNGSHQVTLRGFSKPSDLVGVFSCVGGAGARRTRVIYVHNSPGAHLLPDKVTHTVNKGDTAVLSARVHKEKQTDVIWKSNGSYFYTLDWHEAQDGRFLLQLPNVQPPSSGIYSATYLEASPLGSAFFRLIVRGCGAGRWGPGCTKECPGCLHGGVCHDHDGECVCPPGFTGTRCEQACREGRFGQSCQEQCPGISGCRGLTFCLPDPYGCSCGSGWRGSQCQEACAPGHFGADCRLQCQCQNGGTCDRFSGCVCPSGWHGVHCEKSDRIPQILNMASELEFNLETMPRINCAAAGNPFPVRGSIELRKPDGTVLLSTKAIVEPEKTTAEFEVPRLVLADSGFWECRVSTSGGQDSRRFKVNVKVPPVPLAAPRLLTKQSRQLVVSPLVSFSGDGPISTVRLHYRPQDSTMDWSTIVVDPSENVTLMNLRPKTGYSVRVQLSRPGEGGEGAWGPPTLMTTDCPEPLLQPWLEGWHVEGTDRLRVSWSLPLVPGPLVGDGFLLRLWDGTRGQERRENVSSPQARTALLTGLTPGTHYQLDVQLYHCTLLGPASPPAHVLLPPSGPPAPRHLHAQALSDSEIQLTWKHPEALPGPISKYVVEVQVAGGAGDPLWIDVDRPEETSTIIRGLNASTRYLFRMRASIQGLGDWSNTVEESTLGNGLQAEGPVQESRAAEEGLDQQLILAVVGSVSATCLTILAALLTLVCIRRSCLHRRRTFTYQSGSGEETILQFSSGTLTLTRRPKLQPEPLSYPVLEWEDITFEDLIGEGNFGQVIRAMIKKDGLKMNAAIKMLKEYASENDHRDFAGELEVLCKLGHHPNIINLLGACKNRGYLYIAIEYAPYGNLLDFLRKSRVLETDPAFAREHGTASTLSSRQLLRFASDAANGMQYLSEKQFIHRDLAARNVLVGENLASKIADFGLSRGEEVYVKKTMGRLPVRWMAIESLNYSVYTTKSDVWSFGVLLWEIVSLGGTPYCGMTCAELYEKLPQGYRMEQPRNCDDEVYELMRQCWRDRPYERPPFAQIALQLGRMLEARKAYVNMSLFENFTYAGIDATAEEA

[25] = molecular target: VRK2 (Homo sapiens, UniProt Q86Y07); assay: KINOMEscan: VRK2; format: binding; conditions: 100 nM, read-out: Percent Control
[26] = molecular target: BRSK2 (Homo sapiens, UniProt Q8IWQ3); assay: KINOMEscan: BRSK2; format: binding; conditions: 1000 nM, read-out: Percent Control
[27] = molecular target: Serotonin (5-Hydroxytryptamine) 5-HT2B) (Homo sapiens, UniProt P41595); assay: Eurofins Diversity Panel; format: binding; conditions: hum, Conc. 10 μM
[28] = test system: broad range of receptors, transporters, ion channels, and enzymes; assay: Eurofins Diversity Panel, whole panel (n = 138); format: binding; conditions: 10 µM, except imidazoline I2, Sigma σ1, adrenergic α2A, α2B, α2C
[29] = test system: Imidazoline I2, Central; assay: Eurofins Diversity Panel; format: binding; conditions: rat
[30] = molecular target: Opiate κ(OP2, KOP) (Homo sapiens, UniProt P41145); assay: Eurofins Diversity Panel; format: binding; conditions: hum, Conc. 10 μM

Chain of Prostanoid EP4 (P35408 whole entry): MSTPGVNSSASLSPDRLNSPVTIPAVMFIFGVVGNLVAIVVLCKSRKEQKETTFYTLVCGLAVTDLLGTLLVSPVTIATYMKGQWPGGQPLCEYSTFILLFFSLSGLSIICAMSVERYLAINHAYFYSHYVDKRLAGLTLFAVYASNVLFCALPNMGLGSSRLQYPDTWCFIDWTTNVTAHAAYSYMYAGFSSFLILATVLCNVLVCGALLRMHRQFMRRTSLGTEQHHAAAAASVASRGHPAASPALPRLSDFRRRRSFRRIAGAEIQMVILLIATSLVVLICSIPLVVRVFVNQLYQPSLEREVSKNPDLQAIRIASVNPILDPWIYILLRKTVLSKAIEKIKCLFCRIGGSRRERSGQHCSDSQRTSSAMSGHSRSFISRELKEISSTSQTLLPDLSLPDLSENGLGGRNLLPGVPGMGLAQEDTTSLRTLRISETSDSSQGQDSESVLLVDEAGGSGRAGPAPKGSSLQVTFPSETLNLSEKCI

With `COc1cc(F)ccc1-c1cc(Nc2cc(CS(C)(=N)=O)ccn2)ncc1F` (centres unmarked) [VIP152] the inhibition at 10 µM [1] was 24%, the remaining binding at 0.1 µM [2] was 100% and the remaining binding at 1 µM [3] was 100%. For the same compound, the inhibition at 10 µM [4] was -5%, the remaining binding at 1 µM [5] was 100% and the “IC50 compared with other inhibitors” value [6] was “IC50 was higher than dinaciclib and KB-0742”. It also gave a remaining binding at 1 µM [7] of 99%, a remaining binding at 1 µM [8] of 97% and a remaining binding at 1 µM [9] of 50%. For the same compound, the remaining binding at 1 µM [10] was 100%, the remaining binding at 1 µM [11] was 84% and the remaining binding at 1 µM [12] was 38%. For the same compound, the remaining binding at 1 µM [13] was 71%, the remaining binding at 1 µM [14] was 84% and the remaining binding at 1 µM [15] was 82%. For the same compound, the inhibition at 10 µM [16] was -7%, the remaining binding at 1 µM [17] was 15% and the remaining binding at 1 µM [18] was 96%. The remaining binding at 1 µM [19] was 92%, the remaining binding at 1 µM [20] was 13% and the remaining binding at 0.1 µM [21] was 100%. For the same compound, the remaining binding at 1 µM [22] was 100%, the remaining binding at 1 µM [23] was 29% and the remaining binding at 0.1 µM [24] was 100%. The remaining binding at 0.1 µM [25] was 97%, the remaining binding at 1 µM [26] was 100% and the inhibition at 10 µM [27] was 56%. The “off-target activity across the panel” value [28] was “No significant (>50%) interference”, the IC50 [29] was 1400 nM and the Ki [29] was 930 nM. The “% Inh.” value ([29]; Conc. 10 μM) was 82% and the inhibition at 10 µM [30] was 8%.
